Results as given in the NIST ThermoML archive (doi:10.1016/j.tca.2006.05.010).
Numbers after ± are expanded uncertainties.

Experiments:
[1] = 101.33 kPa, Liquid, Vibrating tube method
[2] = molar heat capacity at constant pressure; conditions: 101.33 kPa, Liquid, Small sample (50 mg) DSC
[3] = refractive index (Na D-line) (dimensionless); conditions: 101.33 kPa, Liquid, Standard Abbe refractometry
[4] = excess molar enthalpy (molar enthalpy of mixing); xn = mol fraction of the nth substance listed; conditions: 308.15 K, 101 kPa, Liquid, Flow calorimetry
[5] = molar heat capacity at constant pressure; xn = mol fraction of the nth substance listed; conditions: 308.15 K, 101 kPa, Liquid, Small sample (50 mg) DSC

C1CCOC1 [tetrahydrofuran]
Conditions	mass density, [1] [kg/m3]	molar heat capacity at constant pressure, [2] [J/K/mol]	refractive index, [3]
288.15 K	–	121.1 ± 1.9	–
293.15 K	–	123.8 ± 1.9	–
298.15 K	881.9 ± 0.11	126.4 ± 2	1.4048 ± 0.0004
303.15 K	–	128.5 ± 2	–
308.15 K	870.99 ± 0.12	131.4 ± 2	1.4002 ± 0.0004
313.15 K	–	133.2 ± 2.1	–
318.15 K	–	135.2 ± 2.1	–
323.15 K	–	136.6 ± 2.1	–

C1COCO1 [1,3-dioxolane]
Conditions	mass density [kg/m3]	molar heat capacity at constant pressure [J/K/mol]	refractive index
[1], 298.15 K	1058.79 ± 0.13	–	–
[1], 308.15 K	1046.4 ± 0.12	–	–
[2], 288.15 K	–	118.8 ± 1.8	–
[2], 293.15 K	–	120.3 ± 1.9	–
[2], 298.15 K	–	121.7 ± 1.9	–
[2], 303.15 K	–	123.3 ± 1.9	–
[2], 308.15 K	–	124.4 ± 1.9	–
[2], 313.15 K	–	125.3 ± 1.9	–
[2], 318.15 K	–	126.8 ± 2	–
[2], 323.15 K	–	128.1 ± 2	–
[2], 328.15 K	–	129.5 ± 2	–
[3], 298.15 K	–	–	1.3983 ± 0.0004
[3], 308.15 K	–	–	1.3934 ± 0.0004

C1CCOCC1 [tetrahydropyran]
Conditions	mass density [kg/m3]	molar heat capacity at constant pressure [J/K/mol]	refractive index
[1], 298.15 K	879.31 ± 0.24	–	–
[1], 308.15 K	868.85 ± 0.24	–	–
[2], 288.15 K	–	143.9 ± 2.2	–
[2], 293.15 K	–	146.3 ± 2.3	–
[2], 298.15 K	–	147.9 ± 2.3	–
[2], 303.15 K	–	149.7 ± 2.3	–
[2], 308.15 K	–	151.7 ± 2.4	–
[2], 313.15 K	–	154.3 ± 2.4	–
[2], 318.15 K	–	156.5 ± 2.4	–
[2], 323.15 K	–	159.1 ± 2.5	–
[2], 328.15 K	–	161.6 ± 2.5	–
[2], 333.15 K	–	164.2 ± 2.5	–
[3], 298.15 K	–	–	1.4188 ± 0.0004
[3], 308.15 K	–	–	1.4142 ± 0.0004

C1CCOC1 [tetrahydrofuran] + C[S+](C)[O-]
Conditions	excess molar enthalpy [kcal/mol]	molar heat capacity at constant pressure [J/K/mol]
[4], x2 = 0.0457	0.0509 ± 0.000717	–
[4], x2 = 0.0875	0.0889 ± 0.0012	–
[4], x2 = 0.1257	0.117 ± 0.00143	–
[4], x2 = 0.1608	0.138 ± 0.00191	–
[4], x2 = 0.2233	0.167 ± 0.00215	–
[4], x2 = 0.2771	0.183 ± 0.00239	–
[4], x2 = 0.3651	0.204 ± 0.00263	–
[4], x2 = 0.4339	0.208 ± 0.00263	–
[4], x2 = 0.5349	0.209 ± 0.00263	–
[4], x2 = 0.6332	0.201 ± 0.00263	–
[4], x2 = 0.697	0.185 ± 0.00239	–
[4], x2 = 0.7753	0.163 ± 0.00215	–
[4], x2 = 0.8215	0.141 ± 0.00191	–
[4], x2 = 0.8735	0.113 ± 0.00143	–
[4], x2 = 0.902	0.0956 ± 0.0012	–
[4], x2 = 0.9325	0.0696 ± 0.000956	–
[4], x2 = 0.965	0.039 ± 0.000717	–
[5], x2 = 0.0807	–	132.9 ± 2.1
[5], x2 = 0.1171	–	133.6 ± 2.1
[5], x2 = 0.2353	–	135.9 ± 2.1
[5], x2 = 0.3233	–	137.7 ± 2.1
[5], x2 = 0.4932	–	141.4 ± 2.2
[5], x2 = 0.5284	–	142.3 ± 2.2
[5], x2 = 0.5833	–	143.6 ± 2.2
[5], x2 = 0.6359	–	144.9 ± 2.2
[5], x2 = 0.7298	–	147.2 ± 2.3
[5], x2 = 0.8269	–	149.8 ± 2.3
[5], x2 = 0.893	–	151.6 ± 2.3
[5], x2 = 0.9507	–	153.2 ± 2.4

C1CCOCC1 [tetrahydropyran] + C[S+](C)[O-]
Conditions	excess molar enthalpy [kcal/mol]	molar heat capacity at constant pressure [J/K/mol]
[4], x2 = 0.0543	0.0899 ± 0.0012	–
[4], x2 = 0.1148	0.16 ± 0.00215	–
[4], x2 = 0.1469	0.187 ± 0.00239	–
[4], x2 = 0.1867	0.214 ± 0.00263	–
[4], x2 = 0.2562	0.243 ± 0.00311	–
[4], x2 = 0.3146	0.261 ± 0.00335	–
[4], x2 = 0.4079	0.273 ± 0.00335	–
[4], x2 = 0.4786	0.278 ± 0.00359	–
[4], x2 = 0.5708	0.27 ± 0.00335	–
[4], x2 = 0.6739	0.247 ± 0.00311	–
[4], x2 = 0.7337	0.226 ± 0.00287	–
[4], x2 = 0.8051	0.19 ± 0.00239	–
[4], x2 = 0.8464	0.164 ± 0.00215	–
[4], x2 = 0.8921	0.121 ± 0.00167	–
[4], x2 = 0.9168	0.0985 ± 0.00143	–
[4], x2 = 0.9429	0.0705 ± 0.000956	–
[4], x2 = 0.9706	0.0375 ± 0.000478	–
[5], x2 = 0.0834	–	152.1 ± 2.4
[5], x2 = 0.1416	–	152.4 ± 2.4
[5], x2 = 0.2619	–	152.8 ± 2.4
[5], x2 = 0.376	–	153.1 ± 2.4
[5], x2 = 0.4572	–	153.5 ± 2.4
[5], x2 = 0.5817	–	153.7 ± 2.4
[5], x2 = 0.6249	–	153.8 ± 2.4
[5], x2 = 0.659	–	153.8 ± 2.4
[5], x2 = 0.7619	–	153.9 ± 2.4
[5], x2 = 0.8405	–	154 ± 2.4
[5], x2 = 0.9268	–	154.2 ± 2.4
[5], x2 = 0.952	–	154.3 ± 2.4

C1COCO1 [1,3-dioxolane] + C[S+](C)[O-]
Conditions	excess molar enthalpy [kcal/mol]	molar heat capacity at constant pressure [J/K/mol]
[4], x2 = 0.0394	0.0146 ± 0.000239	–
[4], x2 = 0.0757	0.0256 ± 0.000478	–
[4], x2 = 0.1095	0.0335 ± 0.000478	–
[4], x2 = 0.1408	0.0409 ± 0.000717	–
[4], x2 = 0.1974	0.0478 ± 0.000717	–
[4], x2 = 0.2469	0.054 ± 0.000717	–
[4], x2 = 0.3297	0.0598 ± 0.000956	–
[4], x2 = 0.3959	0.0629 ± 0.000956	–
[4], x2 = 0.4959	0.0648 ± 0.000956	–
[4], x2 = 0.5961	0.0631 ± 0.000956	–
[4], x2 = 0.663	0.0609 ± 0.000956	–
[4], x2 = 0.7469	0.0562 ± 0.000717	–
[4], x2 = 0.7973	0.0519 ± 0.000717	–
[4], x2 = 0.8551	0.0428 ± 0.000717	–
[4], x2 = 0.8872	0.0354 ± 0.000478	–
[4], x2 = 0.9219	0.0268 ± 0.000478	–
[4], x2 = 0.9594	0.0155 ± 0.000239	–
[5], x2 = 0.0532	–	125.2 ± 1.9
[5], x2 = 0.1036	–	126.2 ± 2
[5], x2 = 0.1897	–	128.2 ± 2
[5], x2 = 0.3044	–	131.3 ± 2
[5], x2 = 0.3922	–	133.9 ± 2.1
[5], x2 = 0.5058	–	137.3 ± 2.1
[5], x2 = 0.5455	–	138.5 ± 2.1
[5], x2 = 0.5936	–	139.9 ± 2.2
[5], x2 = 0.7053	–	143.4 ± 2.2
[5], x2 = 0.781	–	145.9 ± 2.3
[5], x2 = 0.9015	–	150.3 ± 2.3
[5], x2 = 0.9431	–	152 ± 2.4

CCOCCOCC [1,2-diethoxyethane] + C[S+](C)[O-]
Conditions	excess molar enthalpy [kcal/mol]	molar heat capacity at constant pressure [J/K/mol]
[4], x2 = 0.0765	0.0817 ± 0.0012	–
[4], x2 = 0.1421	0.127 ± 0.00167	–
[4], x2 = 0.199	0.155 ± 0.00191	–
[4], x2 = 0.2488	0.172 ± 0.00215	–
[4], x2 = 0.332	0.192 ± 0.00239	–
[4], x2 = 0.3986	0.201 ± 0.00263	–
[4], x2 = 0.4985	0.213 ± 0.00263	–
[4], x2 = 0.5698	0.211 ± 0.00263	–
[4], x2 = 0.6653	0.2 ± 0.00263	–
[4], x2 = 0.7489	0.174 ± 0.00215	–
[4], x2 = 0.799	0.152 ± 0.00191	–
[4], x2 = 0.8564	0.12 ± 0.00167	–
[4], x2 = 0.8883	0.0949 ± 0.0012	–
[4], x2 = 0.9227	0.07 ± 0.000956	–
[4], x2 = 0.9408	0.0586 ± 0.000956	–
[4], x2 = 0.9598	0.0382 ± 0.000478	–
[4], x2 = 0.9795	0.0198 ± 0.000478	–
[5], x2 = 0.0627	–	252.8 ± 3.9
[5], x2 = 0.1317	–	246 ± 3.8
[5], x2 = 0.1895	–	240.7 ± 3.7
[5], x2 = 0.35	–	225 ± 3.5
[5], x2 = 0.4563	–	214.4 ± 3.3
[5], x2 = 0.5642	–	203.2 ± 3.1
[5], x2 = 0.635	–	195.8 ± 3
[5], x2 = 0.6718	–	191.9 ± 3
[5], x2 = 0.7514	–	183.1 ± 2.8
[5], x2 = 0.8274	–	174.7 ± 2.7
[5], x2 = 0.8881	–	167.7 ± 2.6
[5], x2 = 0.941	–	161.6 ± 2.5
